According to ChEMBL document CHEMBL4340530, “Peptide-based covalent inhibitors of MALT1 paracaspase” (Bioorg Med Chem Lett, 2019):
The source made the active and inactive calls. No cut-off for these calls is given here. Numbered stars: 1 amine (or outer) side, 2 acyl side, 3 side chain; on linkers, the order of the positions; unused ones are H or OH. Square brackets hold non-standard residues; d marks the D form. Peptide text beside a SMILES is read from it. * marks the point of attachment. cisHyp = O=C(O)[C@@H]1C[C@H](O)CN1; NMeR = CN[C@@H](CCCNC(=N)N)C(=O)O; Hyp = O=C(O)[C@@H]1C[C@@H](O)CN1; Chg = N[C@H](C(=O)O)C1CCCCC1; Phg = N[C@H](C(=O)O)c1ccccc1; Tle = CC(C)(C)[C@H](N)C(=O)O; NMeV = CN[C@H](C(=O)O)C(C)C; αMeP = C[C@@]1(C(=O)O)CCCN1; Pip = O=C(O)[C@@H]1CCCCN1; Ac6c = NC1(C(=O)O)CCCCC1; Ac5c = NC1(C(=O)O)CCCC1; Cbz = O=C(OCc1ccccc1)*; CO = O=C([*:1])[*:2]; Bz = O=C(c1ccccc1)*; NHPh = c1ccc(N*)cc1; CH2F = FC*

What was measured:
OCI-Ly3 = assay: Antiproliferative activity against human OCI-LY3 cells assessed as growth inhibition treated every 48 hrs measured after 96 hrs by CellTiter-Glo assay; format: functional
OCI-Ly1 = assay: Antiproliferative activity against human OCI-LY1 cells up to 20 uM; format: functional, cell-based
[1] = biological target: T1, Mucosa-associated lymphoid tissue lymphoma translocation protein 1 (Homo sapiens, UniProt Q9UDY8); assay: Inhibition of recombinant LZ-fused MALT1 (340 to 789 residues) (unknown origin) using Ac-LRSR-AMC as substrate by fluorescence assay
T1 sequence (Q9UDY8 whole entry): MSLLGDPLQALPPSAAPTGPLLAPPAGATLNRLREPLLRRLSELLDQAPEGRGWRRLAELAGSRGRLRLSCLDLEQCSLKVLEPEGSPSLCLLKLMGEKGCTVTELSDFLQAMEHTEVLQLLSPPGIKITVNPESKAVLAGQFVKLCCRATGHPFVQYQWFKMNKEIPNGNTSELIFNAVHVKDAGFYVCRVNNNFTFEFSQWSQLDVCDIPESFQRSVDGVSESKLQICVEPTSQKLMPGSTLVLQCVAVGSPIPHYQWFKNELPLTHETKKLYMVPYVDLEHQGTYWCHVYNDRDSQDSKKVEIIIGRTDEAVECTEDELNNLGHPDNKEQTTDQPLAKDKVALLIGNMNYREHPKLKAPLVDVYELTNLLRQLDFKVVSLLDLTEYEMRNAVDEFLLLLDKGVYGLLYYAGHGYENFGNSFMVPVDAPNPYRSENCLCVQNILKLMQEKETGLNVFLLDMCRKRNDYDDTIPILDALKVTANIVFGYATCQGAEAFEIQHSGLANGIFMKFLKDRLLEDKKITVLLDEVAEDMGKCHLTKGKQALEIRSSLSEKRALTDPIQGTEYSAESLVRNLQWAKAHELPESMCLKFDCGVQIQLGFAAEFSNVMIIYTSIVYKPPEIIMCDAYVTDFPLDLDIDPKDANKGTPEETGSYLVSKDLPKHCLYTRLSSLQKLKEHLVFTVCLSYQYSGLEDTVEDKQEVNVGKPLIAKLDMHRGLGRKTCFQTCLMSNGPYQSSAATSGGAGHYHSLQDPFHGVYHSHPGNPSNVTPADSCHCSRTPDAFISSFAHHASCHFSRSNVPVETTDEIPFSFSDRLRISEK

[2] = biological target: T2, Mucosa-associated lymphoid tissue lymphoma translocation protein 1 (Homo sapiens) (UniProt Q9UDY8); assay: Inhibition of MALT1 (unknown origin) expressed in PMA/IO-stimulated human Raji Glosensor cells by reporter gene assay; format: cell-based
T2 sequence (whole entry): T1 sequence (Q9UDY8 whole entry)

| SMILES | GI50 (OCI-Ly3) [nM] | further results |
| --- | --- | --- |
| CC(C)[C@H](NC(=O)c1ccc(Br)cc1)C(=O)N1C[C@H](O)C[C@H]1C(=O)N[C@@H](CCCNC(=N)N)C(=O)CF | 70 |  |
| N=C(N)NCCC[C@H](NC(=O)[C@@H]1CCCN1C(=O)[C@@H](NC(=O)OCc1ccccc1)c1ccccc1)C(=O)CF (Cbz-[Phg]-Pro-Arg-CH2F) | 8050 |  |
| CC(C)[C@H](NC(=O)OCc1ccccc1)C(=O)N1CCC[C@H]1C(=O)N(C)[C@@H](CCCNC(=N)N)C(=O)CF (Cbz-Val-Pro-[NMeR]-CH2F) |  | Activity (OCI-Ly1): inactive; Ki [1]: > 5000 nM |
| CC(C)[C@H](NC(=O)OCc1ccccc1)C(=O)N[C@@H](CCCNC(=N)N)C(=O)N1CCC[C@H]1C(=O)N[C@@H](CCCNC(=N)N)C(=O)CF | 8220 | Activity (OCI-Ly1): inactive; Ki [1]: 140 nM |
| CC(C)C[C@H](NC(=O)OCc1ccccc1)C(=O)N[C@H](C(=O)N1CCC[C@H]1C(=O)N[C@@H](CCCNC(=N)N)C(=O)CF)C(C)C (Cbz-LVPR-CH2F) | 1050 | Activity (OCI-Ly1): inactive; Ki [1]: 90 nM |
| N=C(N)NCCC[C@H](NC(=O)[C@@H]1CCCN1C(=O)C1(NC(=O)OCc2ccccc2)CCCC1)C(=O)CF (Cbz-[Ac5c]-Pro-Arg-CH2F) | 4310 |  |
| N=C(N)NCCC[C@H](NC(=O)[C@@H]1CCCN1C(=O)C1(NC(=O)OCc2ccccc2)CCCCC1)C(=O)CF (Cbz-[Ac6c]-Pro-Arg-CH2F) | 6230 |  |
| CC(C)[C@H](NC(=O)OCc1ccccc1)C(=O)N1C[C@H](O)C[C@H]1C(=O)N[C@@H](CCCNC(=N)N)C(=O)CF (Cbz-Val-[Hyp]-Arg-CH2F) | 290 | IC50 [2]: 0.209 µM |
| N=C(N)NCCC[C@H](NC(=O)[C@@H]1CCCN1C(=O)[C@H](Cc1ccccc1)NC(=O)OCc1ccccc1)C(=O)CF | 2200 |  |
| CC(C)[C@H](NC(=O)OCc1ccccc1)C(=O)N[C@@H](CO)C(=O)N[C@@H](CCCNC(=N)N)C(=O)CF | 290 |  |
| N=C(N)NCCC[C@H](NC(=O)[C@H](CO)NC(=O)[C@@H](NC(=O)c1ccc(Br)cc1)C1CCCCC1)C(=O)CF | 240 |  |
| N=C(N)NCCC[C@H](NC(=O)[C@@H]1C[C@@H](O)CN1C(=O)[C@@H](NC(=O)c1ccc(Br)cc1)C1CCCCC1)C(=O)CF | 60 |  |
| CC(C)[C@H](NC(=O)OCc1ccccc1)C(=O)N1CCC[C@@]1(C)C(=O)N[C@@H](CCCNC(=N)N)C(=O)CF (Cbz-Val-[αMeP]-Arg-CH2F) | 10500 |  |
| N=C(N)NCCC[C@H](NC(=O)[C@@H]1CCCN1C(=O)[C@@H](NC(=O)OCc1ccccc1)C1CCCCC1)C(=O)CF (Cbz-[Chg]-Pro-Arg-CH2F) | 1450 |  |
| CC(C)[C@H](NC(=O)C1CCCCC1)C(=O)N1CCC[C@H]1C(=O)N[C@@H](CCCNC(=N)N)C(=O)CF | 940 |  |
| N=C(N)NCCC[C@H](NC(=O)[C@@H]1CCCN1C(=O)[C@@H](NC(=O)c1ccc(Br)cc1)C1CCCCC1)C(=O)CF | 130 |  |

More lines, main results first:

| GI50 (OCI-Ly3) [nM] | SMILES | further results |
| --- | --- | --- |
| 530 | CC(C)[C@H](NC(=O)c1cccc(Br)c1)C(=O)N1CCC[C@H]1C(=O)N[C@@H](CCCNC(=N)N)C(=O)CF |  |
| 460 | CC(C)[C@H](NC(=O)c1ccc(Br)cc1)C(=O)N1CCOC[C@H]1C(=O)N[C@@H](CCCNC(=N)N)C(=O)CF |  |
| 780 | CC(C)[C@H](NC(=O)Nc1ccc(Cl)cc1)C(=O)N1CCC[C@H]1C(=O)N[C@@H](CCCNC(=N)N)C(=O)CF |  |
| 120 | CC(C)[C@H](NC(=O)c1ccc(Br)cc1)C(=O)N1COC[C@H]1C(=O)N[C@@H](CCCNC(=N)N)C(=O)CF |  |
| 5490 | CC(C)C[C@H](NC(=O)OCc1ccccc1)C(=O)N1CCC[C@H]1C(=O)N[C@@H](CCCNC(=N)N)C(=O)CF (Cbz-Leu-Pro-Arg-CH2F) |  |
| 1440 | CC(C)(C)[C@H](NC(=O)OCc1ccccc1)C(=O)N1CCC[C@H]1C(=O)N[C@@H](CCCNC(=N)N)C(=O)CF (Cbz-[Tle]-Pro-Arg-CH2F) |  |
| 1240 | CC(C)[C@H](NC(=O)c1ccc(Cl)cc1)C(=O)N1CCC[C@H]1C(=O)N[C@@H](CCCNC(=N)N)C(=O)CF |  |
| 4240 | CC(C)[C@H](NC(=O)c1ccccc1Br)C(=O)N1CCC[C@H]1C(=O)N[C@@H](CCCNC(=N)N)C(=O)CF |  |
| 730 | CC(C)[C@H](NC(=O)OCc1ccccc1)C(=O)N1CCCC[C@H]1C(=O)N[C@@H](CCCNC(=N)N)C(=O)CF (Cbz-Val-[Pip]-Arg-CH2F) |  |
| 270 | CC(C)c1ccc(C(=O)N[C@H](C(=O)N2CCC[C@H]2C(=O)N[C@@H](CCCNC(=N)N)C(=O)CF)C(C)C)cc1 |  |
| 1070 | CC(C)[C@H](NC(=O)OCc1ccccc1)C(=O)N1C[C@@H](O)C[C@H]1C(=O)N[C@@H](CCCNC(=N)N)C(=O)CF (Cbz-Val-[cisHyp]-Arg-CH2F) | IC50 [2]: 0.239 µM |
| 6660 | CC(C)[C@H](NC(=O)c1ccc(C#N)cc1)C(=O)N1CCC[C@H]1C(=O)N[C@@H](CCCNC(=N)N)C(=O)CF |  |
| 1520 | CC(C)[C@H](NC(=O)Nc1ccccc1)C(=O)N1CCC[C@H]1C(=O)N[C@@H](CCCNC(=N)N)C(=O)CF ({NHPh-CO}-Val-Pro-Arg-CH2F) |  |
| > 20000 | CC(C)[C@@H](C(=O)N1CCC[C@H]1C(=O)N[C@@H](CCCNC(=N)N)C(=O)CF)N(C)C(=O)OCc1ccccc1 (Cbz-[NMeV]-Pro-Arg-CH2F) | Activity (OCI-Ly1): inactive |
| > 20000 | CN[C@H](C(=O)N1CCC[C@H]1C(=O)N[C@@H](CCCNC(=N)N)C(=O)CF)C(C)C (H-[NMeV]-Pro-Arg-CH2F) | Activity (OCI-Ly1): inactive; Ki [1]: > 200 nM |
| 770 | CC(C)[C@H](NC(=O)c1ccc(Br)cc1)C(=O)N1CC[C@H]1C(=O)N[C@@H](CCCNC(=N)N)C(=O)CF |  |
| 2440 | CC[C@H](C)[C@H](NC(=O)OCc1ccccc1)C(=O)N1CCC[C@H]1C(=O)N[C@@H](CCCNC(=N)N)C(=O)CF (Cbz-Ile-Pro-Arg-CH2F) |  |
| 8520 | CC(C)[C@H](NC(=O)OCc1ccccc1)C(=O)N1CCC[C@H]1C(=O)N[C@@H](CCCNC(=N)N)C(=O)CF (Cbz-Val-Pro-Arg-CH2F) | Activity (OCI-Ly1): inactive |
| 660 | CC(C)[C@H](NC(=O)c1ccccc1)C(=O)N1CCC[C@H]1C(=O)N[C@@H](CCCNC(=N)N)C(=O)CF (Bz-Val-Pro-Arg-CH2F) |  |
| 1670 | COc1ccc(C(=O)N[C@H](C(=O)N2CCC[C@H]2C(=O)N[C@@H](CCCNC(=N)N)C(=O)CF)C(C)C)cc1 |  |
| 120 | CC(C)[C@H](NC(=O)c1ccc(C(F)(F)F)cc1)C(=O)N1CCC[C@H]1C(=O)N[C@@H](CCCNC(=N)N)C(=O)CF |  |
| > 20000 | CC(C)[C@H](NC(=O)c1ccc(Br)cc1)C(=O)N1CCC[C@@H]1C(=O)N[C@@H](CCCNC(=N)N)C(=O)CF | IC50 [2]: 17.5 µM |
